According to patent publication US5591828A, “Bispecific and oligospecific mono-and oligovalent receptors, the preparation and use thereof” (Behringwerke Aktiengesellschaft, priority 1989, dated 1997):

Key:
Assay in all cases: Quantitative inhibition ELISA for MAbs by DTPA or EDTA complexes
Type in all cases: binding, mouse (Balb/c)
[1] = biological target: MAb 2050/534 (anti-DTPA/EDTA monoclonal antibody); settings: solid phase Y-benzyl-DTPA-HSA, preincubation with competitor at RT for 30'
Method: (§1) Isothiocyanatobenzyl-DTPA (formula 2) was covalently coupled as hapten onto human serum albumin (HSA as carrier) with a degree of derivatization of 19 benzyl-DTPA molecules per HSA molecule by the method described in (N. W. Brechbiel et al., Inorganic Chemistry25, (1986) 2772-2781). 20 μg of this hapten-carrier complex, into which cold Y had been complexed, were injected s.c. on day 0 with Freund's adjuvant, on day 7 and 14 with incomplete Freund's adjuvant and on day 21 with PBS into Balb/c mice. On day 24, the spleens of the mice with the highest anti-DTPA antibody titers were fused with the SP2/0-Ag14 myeloma cell line (Shulman et al., Nature 276, (1978) 269). The resulting hybridomas were tested in a DTPA-specific ELISA for the production of high-affinity MAbs against DTPA and EDTA. The ELISA comprised a solid phase which was loaded with a solution containing HSA-benzyl-DTPA-Y. The supernatant containing the MAb to be tested was preincubated with free chelate or its metal ion complexes, and its binding to the specific solid phase was measured. An enzyme amplification system which is coupled to an anti-mouse immunoglobulin antibody was used for this purpose. The details of these methods are described in Annex 1a and 1b.
(§2) Quantitative inhibition ELISA for MAbs by DTPA or EDTA complexes
(§3) 1) 50 μl of Y-benzyl-DTPA-HSA 19 conjugate with a concentration of 1 μg of conjugate per ml of PBS, pH 7.2, are pipetted into each well and incubated at room temperature (RT) overnight.
(§4) 5) Preincubation of the diluted hybridoma supernatant with the competitor is carried out during the blocking (see Annex 1b).
(§5) 6) 50 μl of the appropriately prediluted and preincubated hybridoma supernatants to be tested are applied to each well and incubated at RT for 30 min.
(§6) 15) The extinctions are measured at 492 nm in a […]® […]. 50 μl of NADP with 50 μl of solution and 1200 μl of 0.1N H2 SO4 are employed as blank.
(§7) Preincubation of the hybridoma supernatant with the competitor
(§8) On the basis of the ELISA concentration determination, the hybridoma supernatants are diluted to 1.25 μg/ml in PBS without Ca^++ and Mg^++.
(§9) The hybridoma supernatant is incubated with 100,000-fold, 50,000-fold, 10,000-fold, 5,000-fold, 1,000-fold and 100-fold excess of competitor at RT for 30'. 50 μl of this are pipetted into the ELISA (see Annex 1a, no. 6).
(§10) The complexing constant of DTPA or EDTA to the metal ions depicted in Table I is extremely high so that complete saturation has to be expected on equimolar mixing of DTPA or EDTA with these metal ions. For this reason, the corresponding metal ions were incubated in a 3-fold molar excess with the DTPA or EDTA. As an example, 170 μl of a 10 mM cadmium sulfate solution in double-distilled water (see Annex 1d) were incubated with 30 μl of a 0.028 molar DTPA stock solution in double-distilled water at RT for 5'. Mixing 10 μl of this competitor solution with the hybridoma supernatant leads to a 100,000-fold excess of competitor over the MAb contained in the hybridoma supernatant. Lower competitor to MAb ratios were achieved by diluting the competitor solution in the particular salt ion solution appropriately for the desired molar excess (see Annex 1b).
(§11) Quantitative assay of inhibition of MAb by DTPA and EDTA
(§12) Molar excess of competitor which leads to 50% inhibition of the binding to the solid-phase antigen.

[2] = biological target: MAb BW 2050/174 (anti-DTPA/EDTA monoclonal antibody); settings: MAb 2050/174; solid phase Y-benzyl-DTPA-HSA; preincubation with competitor at RT for 30'
Method: as §1, §2, §3, §4, §5, §6, §7, §8, §9, §10, §11, §12

[3] = biological target: MAb 2050/532 (anti-DTPA/EDTA monoclonal antibody); settings: solid phase Y-benzyl-DTPA-HSA, preincubation with competitor at RT for 30'
Method: as §1, §2, §3, §4, §5, §6, §7, §8, §9, §10, §11, §12

[4] = biological target: MAb 2050/535 (anti-DTPA/EDTA monoclonal antibody); settings: solid phase Y-benzyl-DTPA-HSA, preincubation with competitor at RT for 30'
Method: as §1, §2, §3, §4, §5, §6, §7, §8, §9, §10, §11, §12

[5] = biological target: MAb 2050/531 (anti-DTPA/EDTA monoclonal antibody); settings: solid phase Y-benzyl-DTPA-HSA, preincubation with competitor at RT for 30'
Method: as §1, §2, §3, §4, §5, §6, §7, §8, §9, §10, §11, §12

Molar excess of competitor which leads to 50% inhibition of the binding to the solid-phase antigen [1] | Molar excess of competitor which leads to 50% inhibition of the binding to the solid-phase antigen [2] | Molar excess of competitor which leads to 50% inhibition of the binding to the solid-phase antigen [3] | Molar excess of competitor which leads to 50% inhibition of the binding to the solid-phase antigen [4] | Molar excess of competitor which leads to 50% inhibition of the binding to the solid-phase antigen [5] | SMILES
10^3 molar excess | 10^3 molar excess | 10^3 molar excess | 10^3 molar excess | 10^3 molar excess | O=C(O)CN(CCN(CC(=O)O)CC(=O)O)CCN(CC(=O)O)CC(=O)O [DTPA, diethylenetriaminepentaacetate]
5 × 10^4 molar excess | 10^4 molar excess | 5 × 10^4 molar excess | 10^4 molar excess | 5 × 10^4 molar excess | O=C([O-])CN(CCN(CC(=O)[O-])CC(=O)[O-])CCN(CC(=O)[O-])CC(=O)[O-].[Y+3] [DTPA-Y]
5 × 10^3 molar excess | 5 × 10^3 molar excess | 5 × 10^3 molar excess | 10^3 molar excess | 5 × 10^3 molar excess | O=C([O-])CN(CCN(CCN(CC(=O)O)CC(=O)O)CC(=O)O)CC(=O)[O-].[Zn+2] [DTPA-Zn]
10^3 molar excess | 10^3 molar excess | 5 × 10^3 molar excess | 10^2 molar excess | 10^2 molar excess | O=C([O-])CN(CCN(CC(=O)[O-])CC(=O)[O-])CC(=O)[O-].[Cu+2] [EDTA-Cu]
10^3 molar excess | 10^3 molar excess | 10^3 molar excess | 10^2 molar excess | 10^3 molar excess | O=C([O-])CN(CCN(CC(=O)O)CC(=O)O)CC(=O)[O-].[Zn+2] [EDTA-Zn]
> 10^5 molar excess | > 10^5 molar excess | > 10^5 molar excess | > 10^5 molar excess | > 10^5 molar excess | O=C(O)/C=C(\CC(=O)O)C(=O)O [Trans-aconitic acid, transaconitic acid]

SMILES | Molar excess of competitor which leads to 50% inhibition of the binding to the solid-phase antigen [1] | Molar excess of competitor which leads to 50% inhibition of the binding to the solid-phase antigen [2] | Molar excess of competitor which leads to 50% inhibition of the binding to the solid-phase antigen [3] | Molar excess of competitor which leads to 50% inhibition of the binding to the solid-phase antigen [4] | Molar excess of competitor which leads to 50% inhibition of the binding to the solid-phase antigen [5]
NCCN [1,2-Diaminoethane, 1,2-diaminoethane] | > 10^5 molar excess | > 10^5 molar excess | > 10^5 molar excess | > 10^5 molar excess | > 10^5 molar excess
